# Measurements: PubChem BioAssay AID1963826 (Molecular Pharmacology Branch, DTP, NCI, 2024)
# Test system: 926638-142-R-J1-PDC complex spheroid viability
# Assay: Anticancer human tumor 926638-142-R-J1-PDC patient-derived endometrial carcinoma cell line growth inhibition [POLQ]
# Details: for IC50: curve of first compound; for viability, T/C: stronger effect = lower value
# Outline: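 PDC + HUVEC + MSC complex spheroids; POLQ inhibitors ± partner drugs; top conc. at/near clinical Cmax, else 10 microM (SN-38 1 microM), half-log dilutions; 37 degrees C, 5% CO2.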
# [1] = second compound 0.0316 µM, first compound 0.0316 µM
# [2] = second compound 0.0316 µM, first compound 0.1 µM
# [3] = second compound 0.0316 µM, first compound 0.316 µM
# [4] = second compound 0.0316 µM, first compound 1 µM
# [5] = second compound 0.0316 µM, first compound 3.16 µM
# [6] = second compound 0.0316 µM, first compound 10 µM
# [7] = second compound 0.1 µM, first compound 0.0316 µM
# [8] = second compound 0.1 µM, first compound 0.1 µM
# [9] = second compound 0.1 µM, first compound 0.316 µM
# [10] = second compound 0.1 µM, first compound 1 µM
# [11] = second compound 0.1 µM, first compound 3.16 µM
# [12] = second compound 0.1 µM, first compound 10 µM
# [13] = second compound 0.316 µM, first compound 0.0316 µM
# [14] = second compound 0.316 µM, first compound 0.1 µM
# [15] = second compound 0.316 µM, first compound 0.316 µM
# [16] = second compound 0.316 µM, first compound 1 µM
# [17] = second compound 0.316 µM, first compound 3.16 µM
# [18] = second compound 0.316 µM, first compound 10 µM
# [19] = second compound 1 µM, first compound 0.0316 µM
# [20] = second compound 1 µM, first compound 0.1 µM
# [21] = second compound 1 µM, first compound 0.316 µM
# [22] = second compound 1 µM, first compound 1 µM
# [23] = second compound 1 µM, first compound 3.16 µM
# [24] = second compound 1 µM, first compound 10 µM
# [25] = second compound 3.16 µM, first compound 0.0316 µM
# [26] = second compound 3.16 µM, first compound 0.1 µM
# [27] = second compound 3.16 µM, first compound 0.316 µM
# [28] = second compound 3.16 µM, first compound 1 µM
# [29] = second compound 3.16 µM, first compound 3.16 µM
# [30] = second compound 3.16 µM, first compound 10 µM
# [31] = second compound 10 µM, first compound 0.0316 µM
# [32] = second compound 10 µM, first compound 0.1 µM
# [33] = second compound 10 µM, first compound 0.316 µM
# [34] = second compound 10 µM, first compound 1 µM
# [35] = second compound 10 µM, first compound 3.16 µM
# [36] = second compound 10 µM, first compound 10 µM
# 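Also: spheroids exposed to drugs for one week before readout.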
# 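For viability, T/C in this document: percent viability relative to DMSO vehicle control wells set as 100%.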
compound,measurement,setting,value
CCCS(=O)(=O)Nc1ccc(F)c(C(=O)c2c[nH]c3ncc(-c4ccc(Cl)cc4)cc23)c1F + Cc1cccc(N(C)C(=O)C2C(O)CCN2c2nc(C)cc(C(F)(F)F)c2C#N)c1,IC50,second compound 0.0316 µM,9.51 µM
same,IC50,second compound 0.1 µM,> 10 µM
same,IC50,second compound 0.316 µM,> 10 µM
same,IC50,second compound 1 µM,> 10 µM
same,IC50,second compound 3.16 µM,9.33 µM
same,IC50,second compound 10 µM,> 10 µM
same,"viability, T/C",[1],110%
same,"viability, T/C",[2],95.8%
same,"viability, T/C",[3],97.4%
same,"viability, T/C",[4],103%
same,"viability, T/C",[5],102%
same,"viability, T/C",[6],47.6%
same,"viability, T/C",[7],117%
same,"viability, T/C",[8],103%
same,"viability, T/C",[9],96.2%
same,"viability, T/C",[10],96.9%
same,"viability, T/C",[11],86.4%
same,"viability, T/C",[12],58.2%
same,"viability, T/C",[13],114%
same,"viability, T/C",[14],123%
same,"viability, T/C",[15],94.2%
same,"viability, T/C",[16],97%
same,"viability, T/C",[17],80.4%
same,"viability, T/C",[18],55.1%
same,"viability, T/C",[19],95.1%
same,"viability, T/C",[20],99.4%
same,"viability, T/C",[21],89%
same,"viability, T/C",[22],110%
same,"viability, T/C",[23],86%
same,"viability, T/C",[24],49.8%
same,"viability, T/C",[25],104%
same,"viability, T/C",[26],114%
same,"viability, T/C",[27],87.1%
same,"viability, T/C",[28],88.9%
same,"viability, T/C",[29],94.7%
same,"viability, T/C",[30],46.7%
same,"viability, T/C",[31],97.7%
same,"viability, T/C",[32],94.1%
same,"viability, T/C",[33],77.1%
same,"viability, T/C",[34],76.4%
same,"viability, T/C",[35],89.4%
same,"viability, T/C",[36],56%
CNCc1ccc(-c2[nH]c3cc(F)cc4c3c2CCNC4=O)cc1 + Cc1cccc(N(C)C(=O)C2C(O)CCN2c2nc(C)cc(C(F)(F)F)c2C#N)c1,IC50,second compound 0.0316 µM,> 10 µM
same,IC50,second compound 0.1 µM,> 10 µM
same,IC50,second compound 0.316 µM,> 10 µM
same,IC50,second compound 1 µM,> 10 µM
same,IC50,second compound 3.16 µM,> 10 µM
same,IC50,second compound 10 µM,> 10 µM
same,"viability, T/C",[1],69.2%
same,"viability, T/C",[2],112%
same,"viability, T/C",[3],100%
same,"viability, T/C",[4],93.8%
same,"viability, T/C",[5],89.9%
same,"viability, T/C",[6],82%
same,"viability, T/C",[7],103%
same,"viability, T/C",[8],97.9%
same,"viability, T/C",[9],85.5%
same,"viability, T/C",[10],80.1%
same,"viability, T/C",[11],75.6%
same,"viability, T/C",[12],74.7%
same,"viability, T/C",[13],104%
same,"viability, T/C",[14],92.7%
same,"viability, T/C",[15],84.5%
same,"viability, T/C",[16],89.7%
same,"viability, T/C",[17],100%
same,"viability, T/C",[18],81%
same,"viability, T/C",[19],91.3%
same,"viability, T/C",[20],89.6%
same,"viability, T/C",[21],89.7%
same,"viability, T/C",[22],89%
same,"viability, T/C",[23],81%
same,"viability, T/C",[24],79.1%
same,"viability, T/C",[25],97.8%
same,"viability, T/C",[26],92.8%
same,"viability, T/C",[27],85.1%
same,"viability, T/C",[28],87.9%
same,"viability, T/C",[29],98.5%
same,"viability, T/C",[30],69.7%
same,"viability, T/C",[31],88.8%
same,"viability, T/C",[32],87.7%
same,"viability, T/C",[33],96.2%
same,"viability, T/C",[34],87.2%
same,"viability, T/C",[35],75.4%
same,"viability, T/C",[36],71.7%
